This is an account of results in ChEMBL document CHEMBL4602629, “Isolation of three new meroterpenoids and seven known compounds from Albatrellus yasudae and their Aβ-aggregation inhibitory activity” (Bioorg Med Chem Lett, 2020).

For this test, the target named is Amyloid-beta precursor protein (Homo sapiens, UniProt P05067). Nature of the test: Inhibition of human amyloid beta (1 to 40) aggregation after 24 hrs by ThT fluorescence assay.
Amyloid-beta precursor protein, sequence (P05067 whole entry): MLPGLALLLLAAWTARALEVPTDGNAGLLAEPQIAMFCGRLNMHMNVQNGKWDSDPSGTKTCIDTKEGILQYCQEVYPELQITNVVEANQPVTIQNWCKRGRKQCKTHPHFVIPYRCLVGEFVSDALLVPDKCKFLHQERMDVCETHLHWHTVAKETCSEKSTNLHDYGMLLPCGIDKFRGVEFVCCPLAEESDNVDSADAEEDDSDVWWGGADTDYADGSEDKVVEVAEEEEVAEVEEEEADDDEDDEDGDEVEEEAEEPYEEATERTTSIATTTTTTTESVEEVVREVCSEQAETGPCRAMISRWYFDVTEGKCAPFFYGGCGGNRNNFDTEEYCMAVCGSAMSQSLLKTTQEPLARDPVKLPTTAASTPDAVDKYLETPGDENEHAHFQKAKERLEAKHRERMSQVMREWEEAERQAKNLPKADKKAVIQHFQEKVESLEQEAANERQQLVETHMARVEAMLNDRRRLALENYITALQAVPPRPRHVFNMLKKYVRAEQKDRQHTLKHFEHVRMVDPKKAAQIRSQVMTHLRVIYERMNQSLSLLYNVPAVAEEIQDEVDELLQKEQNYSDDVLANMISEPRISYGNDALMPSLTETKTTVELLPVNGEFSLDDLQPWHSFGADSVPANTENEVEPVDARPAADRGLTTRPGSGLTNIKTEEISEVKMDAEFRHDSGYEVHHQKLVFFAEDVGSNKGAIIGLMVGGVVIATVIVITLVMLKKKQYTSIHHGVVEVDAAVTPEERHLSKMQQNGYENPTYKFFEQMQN
As to `COc1c(O)c(O)c(-c2c(C)c(C/C=C(\C)CC/C=C(\C)CCC=C(C)C)c(OC)c(O)c2O)c(C)c1C/C=C(\C)CC/C=C(\C)CCC=C(C)C`, it took 12.3 µM to reach half-maximal inhibition (IC50).
Next, `CC(C)=CCC/C(C)=C/CC/C(C)=C/Cc1c(C)cc(O)c(O)c1O`: 16.7 µM; `CC(C)=CCC/C(C)=C/CC/C(C)=C/Cc1c(C)cc(O)cc1O`: 19.9 µM.
Next, `COC(=O)c1c(C)cc(O)c(C/C=C(\C)CC/C=C(\C)CCC=C(C)C)c1O`: 221 µM; `CC(C)=CC(=O)C/C(C)=C/CC/C(C)=C/Cc1c(O)cc(C)c(C(=O)O)c1O`: 151 µM; `CC(C)=CCC/C(C)=C/CCC1(C)C=Cc2c(O)cc(C)cc2O1` (stereo unspecified): 68 µM.
Next, `COc1c(O)c(O)cc(C)c1C/C=C(\C)CC/C=C(\C)CCC=C(C)C`: 29.3 µM; `CCCCCCCCCCCCCCC[C@@H](O)C(=O)N[C@@H](CO[C@@H]1O[C@H](CO)[C@@H](O)[C@H](O)[C@H]1O)[C@H](O)/C=C/CC/C=C(\C)CCCCCCCCC` [CEREBROSIDE]: 62.7 µM.
`CC(C)=CCC/C(C)=C/CC[C@@]1(C)C=Cc2c(cc(C)c(C(=O)O)c2O)O1` [DAURICHROMENIC ACID]: the IC50 is 24.7 µM.
Next, `CC(C)=CCC/C(C)=C/CC/C(C)=C/Cc1c(O)cc(C)c(C(=O)O)c1O` [GRIFOLIC ACID]: 20.3 µM; `CC(C)=CCC/C(C)=C/CC/C(C)=C/Cc1c(O)cc(C)cc1O` [GRIFOLIN]: 149 µM.
